Literature values in patent US20240316072A1, “THERAPEUTIC COMPOSITIONS, […] METHODS OF PREPARATION AND USE THEREOF” (Unique Flower LLC, priority 2023, published 2024).

Details: administration of β-Myrcene in the amount of 0.5 mg/g or more; generally understood

In the case of `C=CC(=C)CCC=C(C)C` [β-Myrcene], the “effect in a subject” value is given as “heavy, narcotic, “couch lock” effect”.
